Species: Rattus norvegicus
Assay: DrugMatrix - Regimen: Daily Repeat
Assay type: toxicity, organism-based, Sprague-Dawley
Design: regimen Daily Repeat, gender Male, age 6-8 weeks
Details: in vivo, po, route oral GAVAGE, vehicle .5 % CMC; for ABSOLUTE BASOPHIL / ABSOLUTE EOSINOPHIL / ABSOLUTE LYMPHOCYTE / ABSOLUTE MONOCYTE / ABSOLUTE SEGMENTED NEUTROPHIL / BASOPHIL / EOSINOPHIL / ERYTHROCYTE COUNT / HEMATOCRIT / HEMOGLOBIN / LEUKOCYTE COUNT / LYMPHOCYTE / MEAN CORPUSCULAR HEMOGLOBIN / MEAN CORPUSCULAR HEMOGLOBIN CONCENTRATION / MEAN CORPUSCULAR VOLUME / MONOCYTE / NEUTROPHIL / NUCLEATED RED BLOOD CELLS / PLATELET COUNT: tissue Blood; for ALANINE AMINOTRANSFERASE / ALBUMIN / ALKALINE PHOSPHATASE / ASPARTATE AMINOTRANSFERASE / BLOOD UREA NITROGEN / CARBON DIOXIDE / CHLORIDE / CHOLESTEROL / CREATINE PHOSPHOKINASE / CREATININE / GLUCOSE / LACTATE DEHYDROGENASE / LIPASE / PHOSPHORUS / POTASSIUM / SODIUM / TOTAL BILIRUBIN / TOTAL PROTEIN / URIC ACID: tissue Plasma
[1] = 100 mg/kg, 120 h, dose level Low, time 5 day
[2] = 2000 mg/kg, 72 h, dose level High, time 3 day
[3] = 2000 mg/kg, 120 h, dose level High, time 5 day

CN/C(=N/CCSCc1nc[nH]c1C)NC#N [CIMETIDINE]
ABSOLUTE BASOPHIL [1]: 0 CELLS/uL | ABSOLUTE EOSINOPHIL [1]: 36.33 CELLS/uL | ABSOLUTE LYMPHOCYTE [1]: 10440.33 CELLS/uL | ABSOLUTE MONOCYTE [1]: 206 CELLS/uL | ABSOLUTE SEGMENTED NEUTROPHIL [1]: 1017.33 CELLS/uL | BASOPHIL [1]: 0% | EOSINOPHIL [1]: 0.33% | ERYTHROCYTE COUNT [1]: 5.58 x10E6/uL | HEMATOCRIT [1]: 34.03% | HEMOGLOBIN [1]: 13.43 G/DL | LEUKOCYTE COUNT [1]: 11.7 x10E3/uL | LYMPHOCYTE [1]: 89.33% | MEAN CORPUSCULAR HEMOGLOBIN [1]: 24.07 pg | MEAN CORPUSCULAR HEMOGLOBIN CONCENTRATION [1]: 39.47 G/DL | MEAN CORPUSCULAR VOLUME [1]: 61 fL | MONOCYTE [1]: 1.67% | NEUTROPHIL [1]: 8.67% | NUCLEATED RED BLOOD CELLS [1]: 0 /100WBC | PLATELET COUNT [1]: 685.33 x10E3/uL | ALANINE AMINOTRANSFERASE [1]: 61.33 u/L | ALBUMIN [1]: 4.23 G/DL | ALKALINE PHOSPHATASE [1]: 391.33 u/L | ASPARTATE AMINOTRANSFERASE [1]: 101.67 u/L | BLOOD UREA NITROGEN [1]: 15.33 mg/dL | CARBON DIOXIDE [1]: 28 mmol/L | CHLORIDE [1]: 101 MEQ/L | CHOLESTEROL [1]: 69 mg/dL | CREATINE PHOSPHOKINASE [1]: 711.67 u/L | CREATININE [1]: 0.18 mg/dL | GLUCOSE [1]: 163 mg/dL | LACTATE DEHYDROGENASE [1]: 293 u/L | LIPASE [1]: 10.33 u/L | PHOSPHORUS [1]: 11.6 mg/dL | POTASSIUM [1]: 6.16 MEQ/L | SODIUM [1]: 141.5 MEQ/L | TOTAL BILIRUBIN [1]: 0.2 mg/dL | TOTAL PROTEIN [1]: 5.97 G/DL | URIC ACID [1]: 1.67 mg/dL | ABSOLUTE BASOPHIL [2]: 0 CELLS/uL | ABSOLUTE EOSINOPHIL [2]: 50 CELLS/uL | ABSOLUTE LYMPHOCYTE [2]: 13681 CELLS/uL | ABSOLUTE MONOCYTE [2]: 50 CELLS/uL | ABSOLUTE SEGMENTED NEUTROPHIL [2]: 2252.33 CELLS/uL | BASOPHIL [2]: 0% | EOSINOPHIL [2]: 0.33% | ERYTHROCYTE COUNT [2]: 5.85 x10E6/uL | HEMATOCRIT [2]: 36.93% | HEMOGLOBIN [2]: 14.33 G/DL | LEUKOCYTE COUNT [2]: 16.03 x10E3/uL | LYMPHOCYTE [2]: 84.33% | MEAN CORPUSCULAR HEMOGLOBIN [2]: 24.5 pg | MEAN CORPUSCULAR HEMOGLOBIN CONCENTRATION [2]: 38.8 G/DL | MEAN CORPUSCULAR VOLUME [2]: 63.17 fL | MONOCYTE [2]: 0.33% | NEUTROPHIL [2]: 15% | NUCLEATED RED BLOOD CELLS [2]: 0.33 /100WBC | PLATELET COUNT [2]: 1342.33 x10E3/uL | ALANINE AMINOTRANSFERASE [2]: 56 u/L | ALBUMIN [2]: 4.13 G/DL | ALKALINE PHOSPHATASE [2]: 392.67 u/L | ASPARTATE AMINOTRANSFERASE [2]: 83.33 u/L | BLOOD UREA NITROGEN [2]: 18 mg/dL | CARBON DIOXIDE [2]: 32.33 mmol/L | CHLORIDE [2]: 98.33 MEQ/L | CHOLESTEROL [2]: 86.67 mg/dL | CREATINE PHOSPHOKINASE [2]: 295 u/L | CREATININE [2]: 0.24 mg/dL | GLUCOSE [2]: 145.67 mg/dL | LACTATE DEHYDROGENASE [2]: 334.33 u/L | LIPASE [2]: 17 u/L | PHOSPHORUS [2]: 11.87 mg/dL | POTASSIUM [2]: 7.13 MEQ/L | SODIUM [2]: 141.97 MEQ/L | TOTAL BILIRUBIN [2]: 0.17 mg/dL | TOTAL PROTEIN [2]: 5.67 G/DL | URIC ACID [2]: 1.5 mg/dL | ABSOLUTE BASOPHIL [3]: 0 CELLS/uL | ABSOLUTE EOSINOPHIL [3]: 104.67 CELLS/uL | ABSOLUTE LYMPHOCYTE [3]: 19446 CELLS/uL | ABSOLUTE MONOCYTE [3]: 531.33 CELLS/uL | ABSOLUTE SEGMENTED NEUTROPHIL [3]: 1118 CELLS/uL | BASOPHIL [3]: 0% | EOSINOPHIL [3]: 0.67% | ERYTHROCYTE COUNT [3]: 5.6 x10E6/uL | HEMATOCRIT [3]: 34.37% | HEMOGLOBIN [3]: 14 G/DL | LEUKOCYTE COUNT [3]: 21.2 x10E3/uL | LYMPHOCYTE [3]: 91.33% | MEAN CORPUSCULAR HEMOGLOBIN [3]: 25.03 pg | MEAN CORPUSCULAR HEMOGLOBIN CONCENTRATION [3]: 40.77 G/DL | MEAN CORPUSCULAR VOLUME [3]: 61.33 fL | MONOCYTE [3]: 2.33% | NEUTROPHIL [3]: 5.67% | NUCLEATED RED BLOOD CELLS [3]: 0 /100WBC | PLATELET COUNT [3]: 1356.67 x10E3/uL | ALANINE AMINOTRANSFERASE [3]: 58 u/L | ALBUMIN [3]: 4.07 G/DL | ALKALINE PHOSPHATASE [3]: 363 u/L | ASPARTATE AMINOTRANSFERASE [3]: 88.33 u/L | BLOOD UREA NITROGEN [3]: 19.33 mg/dL | CARBON DIOXIDE [3]: 25 mmol/L | CHLORIDE [3]: 100.33 MEQ/L | CHOLESTEROL [3]: 60 mg/dL | CREATINE PHOSPHOKINASE [3]: 520.33 u/L | CREATININE [3]: 0.3 mg/dL | GLUCOSE [3]: 225 mg/dL | LACTATE DEHYDROGENASE [3]: 221.33 u/L | LIPASE [3]: 8 u/L | PHOSPHORUS [3]: 13.4 mg/dL | POTASSIUM [3]: 5.31 MEQ/L | SODIUM [3]: 143.57 MEQ/L | TOTAL BILIRUBIN [3]: 0.2 mg/dL | TOTAL PROTEIN [3]: 5.73 G/DL | URIC ACID [3]: 1.9 mg/dL
